# Laboratory results taken from article doi:10.1101/2021.06.10.447852v1 (biorxiv, 2021).
# Test system: EZH2 (methyltransferase component of PRC2)
# Experiment: cells
# Settings: Homo sapiens, HEK-293T, 48 h, read-out: Cell IC50 (H3K27me3) (nM)
row,IC50 [nM],SMILES
1,6,"CSc1cc(C)[nH]c(=O)c1CN1CCN(C)c2c(Cl)cc(-c3c(C)noc3C)c(Cl)c2C1=O [compound 21, TDI-11904]"
2,1550,"CSc1cc(C)n(C)c(=O)c1CN1CCN(C)c2c(Cl)cc(-c3c(C)noc3C)c(Cl)c2C1=O [compound 22, 22]"
3,167,"CSc1cc(C)n(C)c(=O)c1CN1CCNc2c(Cl)cc(-c3c(C)noc3C)c(Cl)c2C1=O [compound 23, 23]"
